Test system: MDA-231 cancer cells
Experiment: Inhibition of proliferation assay, cell confluence (IncuCyte live cell imaging)
Type: cell-based
Conditions: MDA-231 cells, concentration 10 uM; relative confluence normalised to time zero, images every 3 h over 4-5 d
From the text: Inhibition of Proliferation Assay Cell Confluence The confluence value is a surrogate for cell proliferation and growth. The value is expressed as a percent confluence, which represents the fraction of culture dish-surface that is occupied by cells. As the number of cells in the dish increases over time due to proliferation, so will their coverage of that surface increase. Expansion of the cell population on the cell culture-dish surface and confluence have mostly a linear relationship until the cells on the plate surface begin to reach saturation or maximum density. Confluence is determined based on image analysis. Image based software can identify objects in the image field base on changes to pixel density in a grey scale image. The software can then assign a mask to those pixels within the object. Objects can be ‘gated’ out based on size and shape. To determine cell confluence, images of cells are first masked as objects. The surface area of the image that is masked is measured and compared to the total surface area of the culture dish surface to obtain a percent confluence. MDA-231 cancer cells were obtained from ATCC. Cells were cultured in Dulbecco's Modified Eagle Medium (DMEM) supplemented with 10% Fetal Bovine Serum (FBS), 2 mM Glutamax, 1 mM Non Essential Amino Acid (NEAA) solution and 1 mM sodium pyruvate. Compounds were dissolved in DMSO at 10 mM and diluted in cellular medium and tested at 10 μM (micromolar). Final DMSO concentrations were <0.1%. Images were acquired with an IncuCyte Live Cell Imaging microscopy (Essen Bioscience) at every 3 h under cell culture conditions with 10× objective over 4-5 d. Cell confluence was calculated from one field of view per well using the IncuCyte in-built algorithm. Relative confluence values were obtained by normalising each value to the time zero value in each sample.

| Compound | % Confluence |
| --- | --- |
| CC[C@H]1OC(=O)[C@H](C)[C@@H](O[C@H]2C[C@@](C)(OC)[C@@H](O)[C@H](C)O2)[C@H](C)[C@@H](O[C@@H]2O[C@H](C)C[C@H](N(C)C)[C@H]2OC(C)=O)[C@](C)(O)C[C@@H](C)CN(C)[C@H](C)[C@@H](OC(=O)NCCCCCCCCCC[P+](c2ccccc2)(c2ccccc2)c2ccccc2)[C@]1(C)O.[Br-] [Example 18, (2S,3R,4S,6R)-4-(dimethylamino)-2-{[(2R,3R,4R,5R,8R,10R,11R,12S,13S,14R)-2-ethyl-3,10-dihydroxy-13-{[(2R,4R,5S,6S)-5-hydroxy-4-methoxy-4,6-dimethyloxan-2-yl]oxy}-3,5,6,8,10,12,14-heptamethyl-15-oxo-4-({[10-(triphenylphosphosphoniumyl)decyl]carbamoyl}oxy)-1-oxa-6-azacyclopentadecan-11-yl]oxy}-6-methyloxan-3-yl acetate bromide] | 9.6% |
| CC[C@H]1OC(=O)[C@H](C)[C@@H](O[C@H]2C[C@@](C)(OC)[C@@H](O)[C@H](C)O2)[C@H](C)[C@@H](O[C@@H]2O[C@H](C)C[C@H](N(C)C)[C@H]2O)[C@](C)(O)C[C@@H](C)CN(C(=O)CCCCCC[P+](c2ccccc2)(c2ccccc2)c2ccccc2)[C@H](C)[C@@H](O)[C@]1(C)O [Example 4, {7-[(2R,3S,4R,5R,8R,10R,11R,12S,13S,14R)-11-{[(2S,3R,4S,6R)-4-(dimethylamino)-3-hydroxy-6-methyloxan-2-yl]oxy}-2-ethyl-3,4,10-trihydroxy-13-{[(2R,4R,5S,6S)-5-hydroxy-4-methoxy-4,6-dimethyloxan-2-yl]oxy}-3,5,8,10,12,14-hexamethyl-15-oxo-1-oxa-6-azacyclopentadecan-6-yl]-7-oxoheptyl}triphenylphosphonium hexafluorophosphate(V)] | 89.9% |
| CC[C@H]1OC(=O)[C@H](C)[C@@H](O[C@H]2C[C@@](C)(OC)[C@@H](O)[C@H](C)O2)[C@H](C)[C@@H](O[C@@H]2O[C@H](C)C[C@H](N(C)C)[C@H]2O)[C@](C)(O)C[C@@H](C)CN(C)[C@H](C)[C@@H](OC(=O)NCCCCCCCC[P+](c2ccccc2)(c2ccccc2)c2ccccc2)[C@]1(C)O.[Br-] [Example 20, (2R,3R,4R,5R,8R,10R,11R,12S,13S,14R)-11-{[(2S,3R,4S,6R)-4-(dimethylamino)-3-hydroxy-6-methyloxan-2-yl]oxy}-2-ethyl-3,10-dihydroxy-13-{[(2R,4R,5S,6S)-5-hydroxy-4-methoxy-4,6-dimethyloxan-2-yl]oxy}-3,5,6,8,10,12,14-heptamethyl-15-oxo-1-oxa-6-azacyclopentadecan-4-yl N-[8-(triphenylphosphoniumyl)octyl]carbamate bromide] | 13.5% |
| CC[C@H]1OC(=O)[C@H](C)[C@@H](O[C@H]2C[C@@](C)(OC)[C@@H](O)[C@H](C)O2)[C@H](C)[C@@H](O[C@@H]2O[C@H](C)C[C@H](N(C)C)[C@H]2O)[C@](C)(O)C[C@@H](C)CN(C(=O)CCOCCOCC[P+](c2ccccc2)(c2ccccc2)c2ccccc2)[C@H](C)[C@@H](O)[C@]1(C)O.[Br-] [Example 23, [2-(2-{3-[(2R,3S,4R,5R,8R,10R,11R,12S,13S,14R)-11-{[(2S,3R,4S,6R)-4-(dimethylamino)-3-hydroxy-6-methyloxan-2-yl]oxy}-2-ethyl-3,4,10-trihydroxy-13-{[(2R,4R,5S,6S)-5-hydroxy-4-methoxy-4,6-dimethyloxan-2-yl]oxy}-3,5,6,8,10,12,14-hexamethyl-15-oxo-1-oxa-6-azacyclopentadecan-6-yl]-3-oxopropoxy}ethoxy)ethyl]triphenylphosphonium bromide] | 118% |
| CC[C@H]1OC(=O)[C@H](C)[C@@H](O[C@H]2C[C@@](C)(OC)[C@@H](O)[C@H](C)O2)[C@H](C)[C@@H](O[C@@H]2O[C@H](C)C[C@H](N(C)C)[C@H]2O)[C@](C)(O)C[C@@H](C)CN(C)[C@H](C)[C@@H](OC(=O)NCCCCCCCCCC[P+](c2ccccc2)(c2ccccc2)c2ccccc2)[C@]1(C)O.[Br-] [Example 19, (2R,3R,4R,5R,8R,10R,11R,12S,13S,14R)-11-{[(2S,3R,4S,6R)-4-(dimethylamino)-3-hydroxy-6-methyloxan-2-yl]oxy}-2-ethyl-3,10-dihydroxy-13-{[(2R,4R,5S,6S)-5-hydroxy-4-methoxy-4,6-dimethyloxan-2-yl]oxy}-3,5,6,8,10,12,14-heptamethyl-15-oxo-1-oxa-6-azacyclopentadecan-4-yl N-[10-(triphenylphosphoniumyl)decyl]carbamate bromide] | 9.7% |
| CC[C@H]1OC(=O)[C@H](C)[C@@H](O[C@H]2C[C@@](C)(OC)[C@@H](O)[C@H](C)O2)[C@H](C)[C@@H](O[C@@H]2O[C@H](C)C[C@H](N(C)C)[C@H]2O)[C@](C)(O)C[C@@H](C)CN(C(=O)CCCCCCCCCCCCC[P+](c2ccccc2)(c2ccccc2)c2ccccc2)[C@H](C)[C@@H](O)[C@]1(C)O [Example 1, {14-[(2R,3S,4R,5R,8R,10R,11R,12S,13S,14R)-11-{[(2S,3R,4S,6R)-4-(dimethylamino)-3-hydroxy-6-methyloxan-2-yl]oxy}-2-ethyl-3,4,10-trihydroxy-13-{[(2R,4R,5S,6S)-5-hydroxy-4-methoxy-4,6-dimethyloxan-2-yl]oxy}-3,5,8,10,12,14-hexamethyl-15-oxo-1-oxa-6-azacyclopentadecan-6-yl]-14-oxotetradecyl}triphenylphosphonium hexafluorophosphate(V)] | 4.2% |
| CC[C@H]1OC(=O)[C@H](C)[C@@H](O[C@H]2C[C@@](C)(OC)[C@@H](O)[C@H](C)O2)[C@H](C)[C@@H](O[C@@H]2O[C@H](C)C[C@H](N(C)C)[C@H]2O)[C@](C)(O)C[C@@H](C)CN(C(=O)CCCCCCCCCCC[P+](c2ccccc2)(c2ccccc2)c2ccccc2)[C@H](C)[C@@H](O)[C@]1(C)O [Example 5, {12-[(2R,3S,4R,5R,8R,10R,11R,12S,13S,14R)-11-{[(2S,3R,4S,6R)-4-(dimethylamino)-3-hydroxy-6-methyloxan-2-yl]oxy}-2-ethyl-3,4,10-trihydroxy-13-{[(2R,4R,5S,6S)-5-hydroxy-4-methoxy-4,6-dimethyloxan-2-yl]oxy}-3,5,8,10,12,14-hexamethyl-15-oxo-1-oxa-6-azacyclopentadecan-6-yl]-12-oxododecyl}triphenylphosphonium hexafluorophosphate(V)] | 5% |
| CC[C@H]1OC(=O)[C@H](C)[C@@H](O[C@H]2C[C@@](C)(OC)[C@@H](O)[C@H](C)O2)[C@H](C)[C@@H](O[C@@H]2O[C@H](C)C[C@H](N(C)C)[C@H]2O)[C@](C)(O)C[C@@H](C)CN(C(=O)CCCCCCCC[P+](c2ccccc2)(c2ccccc2)c2ccccc2)[C@H](C)[C@@H](O)[C@]1(C)O [Example 3, {9-[(2R,3S,4R,5R,8R,10R,11R,12S,13S,14R)-11-{[(2S,3R,4S,6R)-4-(dimethylamino)-3-hydroxy-6-methyloxan-2-yl]oxy}-2-ethyl-3,4,10-trihydroxy-13-{[(2R,4R,5S,6S)-5-hydroxy-4-methoxy-4,6-dimethyloxan-2-yl]oxy}-3,5,8,10,12,14-hexamethyl-15-oxo-1-oxa-6-azacyclopentadecan-6-yl]-9-oxononyl}triphenylphosphonium hexafluorophosphate(V)] | 98.4% |

Source: US11560395B2, “Azithromycin derivatives containing a phosphonium ion as anticancer agents” (Rising Tide Foundation, priority 2017, dated 2023)
